This assay is described as follows: Binding affinity against Sigma receptor type 1 was determined by the displacement of [3H]pentazocine radioligand.
Turning to `C[C@@H]1CN(CCCn2c3ccc(Br)cc3c3cc(Br)ccc32)C[C@@H](C)N1` [3,6-Dibromo-9-[3-(3,5-dimethyl-piperazin-1-yl)-propyl]-9H-carbazole], the Ki turned out to be 4.42 µM. As for `C[C@@H]1CN(CCCn2c3ccccc3c3ccccc32)C[C@@H](C)N1C` [9-[3-(3,4,5-Trimethyl-piperazin-1-yl)-propyl]-9H-carbazole], affinity was put at a Ki of 0.552 µM. The compound `C[C@@H]1CN(CCCn2c3ccccc3c3cc([N+](=O)[O-])ccc32)C[C@@H](C)N1` [9-[3-(3,5-Dimethyl-piperazin-1-yl)-propyl]-3-nitro-9H-carbazole] showed an inhibition constant Ki of 0.596 µM. As for `C[C@@H]1CN(CCCn2c3ccccc3c3cc(N)ccc32)C[C@@H](C)N1` [9-[3-(3,5-Dimethyl-piperazin-1-yl)-propyl]-9H-carbazol-3-ylamine], the Ki came out at 5.72 µM. Under `C[C@@H]1CN(CCCn2c3ccccc3c3ccccc32)C[C@@H](C)N1CCCc1ccccc1` [9-{3-[3,5-Dimethyl-4-(3-phenyl-propyl)-piperazin-1-yl]-propyl}-9H-carbazole] stands 0.104 µM. For the compound `C[C@@H]1CN(CCCN(c2ccc(F)cc2)c2ccc(F)cc2)C[C@@H](C)N1CCc1ccc(Cl)c(Cl)c1` [(3-{(3R,5R)-4-[2-(3,4-Dichloro-phenyl)-ethyl]-3,5-dimethyl-piperazin-1-yl}-propyl)-bis-(4-fluoro-phenyl)-amine], the inhibition constant Ki was 0.0325 µM.

In turn, `C[C@@H]1CN(CCCN(c2ccccc2)c2ccccc2)C[C@@H](C)N1CCc1ccc(Cl)c(Cl)c1` [(3-{(3R,5R)-4-[2-(3,4-Dichloro-phenyl)-ethyl]-3,5-dimethyl-piperazin-1-yl}-propyl)-diphenyl-amine] yielded a Ki of 0.0296 µM. For `Fc1ccc(N(CCCN2CCNCC2)c2ccc(F)cc2)cc1` [Bis-(4-fluoro-phenyl)-(3-piperazin-1-yl-propyl)-amine], the Ki was determined as 1.39 µM. For `Fc1ccc(N(CCCN2CCN(CCCc3ccccc3)CC2)c2ccc(F)cc2)cc1` [Bis-(4-fluoro-phenyl)-{3-[4-(3-phenyl-propyl)-piperazin-1-yl]-propyl}-amine], the Ki was 0.0662 µM.

Turning to `Fc1ccc(N(CCCN2CCN(Cc3ccccc3)CC2)c2ccc(F)cc2)cc1` [N-(3-(4-benzylpiperazin-1-yl)propyl)-4-fluoro-N-(4-fluorophenyl)benzenamine], the Ki is 0.0131 µM. `CCN(CC)CCOCCOC(=O)C1(c2ccccc2)CCCC1` [SMR000326757] registered a Ki of 0.0195 µM. In the case of `C[C@@H]1CN(CCCN(c2ccc(F)cc2)c2ccc(F)cc2)C[C@@H](C)N1` [[3-((3R,5R)-3,5-Dimethyl-piperazin-1-yl)-propyl]-bis-(4-fluoro-phenyl)-amine], the affinity corresponds to a Ki of 0.124 µM. Take `C[C@@H]1CN(CCCN(c2ccccc2)c2ccccc2)C[C@@H](C)N1` [[3-((3R,5R)-3,5-Dimethyl-piperazin-1-yl)-propyl]-diphenyl-amine]: the Ki was determined as 0.138 µM. Regarding `C[C@@H]1CN(CCCN(c2ccc(F)cc2)c2ccc(F)cc2)C[C@@H](C)N1CCCc1ccccc1` [{3-[3,5-Dimethyl-4-(3-phenyl-propyl)-piperazin-1-yl]-propyl}-bis-(4-fluoro-phenyl)-amine], affinity was put at a Ki of 0.0111 µM.

Compound `C[C@@H]1CN(CCCN(c2ccccc2)c2ccccc2)C[C@@H](C)N1CCCc1ccccc1` [{3-[3,5-Dimethyl-4-(3-phenyl-propyl)-piperazin-1-yl]-propyl}-diphenyl-amine] yielded an inhibitory constant (Ki) of 0.0972 µM.

These data come from BindingDB's records for doi:10.1021/jm030008u (Nida-Irp, 2003).
